From US11865111B2, “Antiviral drugs targeting the N-terminal domain (NTD) of the coronavirus spike receptor binding domain (RBD)” (priority 2021, dated 2024)
Read-outs that look alike come from different tables or passages of the source.

Columns and labels:
[1] = system: SARS-CoV-2 (USA-WA1/2020); assay: microbe, parasite or virus in culture; assay type: cell-based; settings: for SI (selectivity index=CC50/EC50): CC50/EC50, against the SARS-CoV-2 strain
[2] = in vitro; settings: African green monkey
[3] = Severe acute respiratory syndrome coronavirus 2, Vero C1008, 32 h, read-out: EC50
[4] = Severe acute respiratory syndrome coronavirus 2, Vero C1008, 32 h, read-out: EC90
[5] = Severe acute respiratory syndrome coronavirus 2, Vero C1008, against the SARS-CoV-2 strain, read-out: EC90 value

SMILES: CCOc1cc(CN2CCC(C(=O)Nc3cccc(-c4ccc(Cl)cc4)c3)CC2)ccc1O [Compound 10, N-(4′-chloro-[1,1′-biphenyl]-3-yl)-1-(3-ethoxy-4-hydroxybenzyl)piperidine-4-carboxamide]
- SI (selectivity index=CC50/EC50) [1]: 2.65
- EC50 [1, 3]: 6.2 µM
- EC90 [1, 4]: 9.1 µM
- CC50 [2]: 16 µM

SMILES: CCOc1cc(CN2CCC(C(=O)Nc3cccc(-c4cccc(C(F)(F)F)c4)c3)CC2)ccc1O [Compound 5, 1-(3-ethoxy-4-hydroxybenzyl)-N-(3′-(trifluoromethyl)-[1,1′-biphenyl]-3-yl)piperidine-4-carboxamide]
- SI (selectivity index=CC50/EC50) [1]: 3.20
- EC50 [1, 3]: 4.91 µM
- EC90 [1, 4]: 7.47 µM
- CC50 [2]: 15.6 µM

SMILES: O=C(Nc1cccc(-c2cccc(Cl)c2)c1)C1CCN(Cc2ccc(O)cc2)CC1 [Compound 7, N-(3′-chloro-[1,1′-biphenyl]-3-yl)-1-(4-hydroxybenzyl)piperidine-4-carboxamide]
- SI (selectivity index=CC50/EC50) [1]: 3.36
- EC50 [1, 3]: 6.4 µM
- EC90 [1, 4]: 11 µM
- CC50 [2]: 21 µM

SMILES: CNC(=O)c1cccc(CNCc2cccc(-c3csc(-c4nc5ccccc5[nH]4)c3)c2)c1 [Compound 2, 3-(((3-(5-(1H-benzo[d]imidazol-2-yl)thiophen-3-yl)benzyl)amino)methyl)-N-methylbenzamide]
- SI (selectivity index=CC50/EC50) [1]: >4.04
- EC50 [1, 3]: 7.43 µM
- EC90 [1, 4]: 13.1 µM
- CC50 [2]: > 30 µM

SMILES: COc1cc(C(=O)OCCCN2CCCN(CCCOC(=O)c3cc(OC)c(OC)c(OC)c3)CC2)cc(OC)c1OC [Dilazep, 3-[4-[3-(3,4,5-trimethoxybenzoyl)oxypropyl]-1,4-diazepan-1-yl]propyl 3,4,5-trimethoxybenzoate, reference compound]
- EC50 ([1]; Severe acute respiratory syndrome coronavirus 2, Vero C1008, against the SARS-CoV-2 strain, read-out: EC50 value): 3.89 µM
- EC90 [1, 5]: 19.8 µM
- CC50 [2]: > 30 µM

SMILES: COc1ccc(CN2CCC(C(=O)Nc3cccc(-c4cccc(Cl)c4)c3)CC2)cc1O [Compound 8, N-(3′-chloro-[1,1′-biphenyl]-3-yl)-1-(3-hydroxy-4-methoxybenzyl)piperidine-4-carboxamide]
- SI (selectivity index=CC50/EC50) [1]: 2.48
- EC50 [1, 3]: 6.9 µM
- EC90 [1, 4]: 11.7 µM
- CC50 [2]: 17 µM

SMILES: CCOc1cc(CN2CCC(C(=O)Nc3cccc(-c4cccc(OC)c4)c3)CC2)ccc1O [Compound 6, 1-(3-ethoxy-4-hydroxybenzyl)-N-(3′-methoxy-[1,1′-biphenyl]-3-yl)piperidine-4-carboxamide]
- SI (selectivity index=CC50/EC50) [1]: 3.70
- EC50 [1, 3]: 7.16 µM
- EC90 [1, 4]: 11.5 µM
- CC50 [2]: 26.3 µM

SMILES: O=C(NC1CCN(CCCCC2(C(=O)NCC(F)(F)F)c3ccccc3-c3ccccc32)CC1)c1ccccc1-c1ccc(C(F)(F)F)cc1 [N-(2,2,2-trifluoroethyl)-9-(4-(4-(4′-(trifluoromethyl)-[1,1′-biphenyl]-2-carboxamido)piperidin-1-yl)butyl)-9H-fluorene-9-carboxamide, reference compound]
- SI (selectivity index=CC50/EC50) [1]: 5.92
- EC50 ([1]; Severe acute respiratory syndrome coronavirus 2, Vero C1008, against the SARS-CoV-2 strain, unit inferred, read-out: EC50 value): 1.61 µM
- EC90 [1, 5]: 2.83 µM
- CC50 [2]: 9.56 µM

SMILES: COC(=O)c1cccc(CNC(=O)c2cccc(-c3csc(-c4nc5ccccc5[nH]4)c3)c2)c1 [Compound 3, methyl 3-((3-(5-(1H-benzo[d]imidazol-2-yl)thiophen-3-yl)benzamido)methyl)benzoate]
- SI (selectivity index=CC50/EC50) [1]: >4.00
- EC50 [1, 3]: 7.5 µM
- EC90 [1, 4]: 12.6 µM
- CC50 [2]: > 30 µM

SMILES: COC(=O)c1cccc(CNCc2cccc(-c3csc(-c4nc5ccccc5[nH]4)c3)c2)c1 [Compound 1, methyl 3-(((3-(5-(1H-benzo[d]imidazol-2-yl)thiophen-3-yl)benzyl)amino)methyl)benzoate]
- SI (selectivity index=CC50/EC50) [1]: >5.30
- EC50 [1, 3]: 5.66 µM
- EC90 [1, 4]: 9.5 µM
- CC50 [2]: > 30 µM

SMILES: CCOc1cc(CN2CCC(C(=O)Nc3cccc(-c4cccc(F)c4)c3)CC2)ccc1O [Compound 4, 1-(3-ethoxy-4-hydroxybenzyl)-N-(3′-fluoro-[1,1′-biphenyl]-3-yl)piperidine-4-carboxamide]
- SI (selectivity index=CC50/EC50) [1]: >4.92
- EC50 [1, 3]: 6.1 µM
- EC90 [1, 4]: 10.1 µM
- CC50 [2]: > 30 µM

SMILES: CCOc1cc(CN2CCC(C(=O)Nc3cccc(-c4cccc(Cl)c4)c3)CC2)ccc1O [Compound 9, N-(3′-chloro-[1,1′-biphenyl]-3-yl)-1-(3-ethoxy-4-hydroxybenzyl)piperidine-4-carboxamide]
- SI (selectivity index=CC50/EC50) [1]: 2.80
- EC50 [1, 3]: 5.8 µM
- EC90 [1, 4]: 8.9 µM
- CC50 [2]: 16 µM
